# Columns and labels:
# PI3Kα = PI3Kα (Homo sapiens, UniProt P42336); assay: PI3K-alpha fluorescence polarization assay; type: biochemical; conditions: read-out: PI3Kα Median IC50
# PI3Kγ = PI3Kγ (Homo sapiens, UniProt P48736); assay: PI3K-gamma fluorescence polarization assay; type: biochemical; conditions: read-out: PI3Kγ Median IC50
# mTOR = mTOR (Homo sapiens, UniProt P42345); assay: mTOR enzyme assay (DELFIA format, His6-S6K substrate); type: biochemical; conditions: read-out: mTOR Kinase Median IC50
# PI3Kα, sequence (P42336 whole entry, species assumed): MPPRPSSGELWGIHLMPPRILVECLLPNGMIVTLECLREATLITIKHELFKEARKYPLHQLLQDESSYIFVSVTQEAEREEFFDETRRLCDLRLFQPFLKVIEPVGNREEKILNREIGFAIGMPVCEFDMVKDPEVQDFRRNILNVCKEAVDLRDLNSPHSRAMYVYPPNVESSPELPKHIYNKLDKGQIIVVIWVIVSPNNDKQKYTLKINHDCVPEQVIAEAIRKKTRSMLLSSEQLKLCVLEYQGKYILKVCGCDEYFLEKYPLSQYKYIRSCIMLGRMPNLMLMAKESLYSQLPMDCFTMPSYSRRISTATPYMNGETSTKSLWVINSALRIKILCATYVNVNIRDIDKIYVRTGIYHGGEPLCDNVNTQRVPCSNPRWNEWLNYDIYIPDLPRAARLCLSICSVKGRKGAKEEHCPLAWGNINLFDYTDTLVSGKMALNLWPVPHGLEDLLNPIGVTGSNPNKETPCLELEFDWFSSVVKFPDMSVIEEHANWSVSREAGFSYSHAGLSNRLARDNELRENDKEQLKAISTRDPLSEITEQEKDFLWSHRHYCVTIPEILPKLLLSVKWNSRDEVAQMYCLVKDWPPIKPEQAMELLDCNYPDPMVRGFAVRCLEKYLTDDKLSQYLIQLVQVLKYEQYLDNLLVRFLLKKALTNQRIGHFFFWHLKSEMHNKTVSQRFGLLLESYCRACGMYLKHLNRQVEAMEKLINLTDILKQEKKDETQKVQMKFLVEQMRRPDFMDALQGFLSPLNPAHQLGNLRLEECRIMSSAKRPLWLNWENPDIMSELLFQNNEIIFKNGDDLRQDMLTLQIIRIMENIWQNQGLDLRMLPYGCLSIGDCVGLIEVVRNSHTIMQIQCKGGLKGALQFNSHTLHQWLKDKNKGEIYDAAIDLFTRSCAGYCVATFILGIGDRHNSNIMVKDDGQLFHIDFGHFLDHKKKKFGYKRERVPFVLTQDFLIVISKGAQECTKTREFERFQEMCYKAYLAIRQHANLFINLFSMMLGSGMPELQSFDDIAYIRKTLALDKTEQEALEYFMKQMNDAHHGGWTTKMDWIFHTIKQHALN
# PI3Kα, sequence (P27986 whole entry partner, species assumed): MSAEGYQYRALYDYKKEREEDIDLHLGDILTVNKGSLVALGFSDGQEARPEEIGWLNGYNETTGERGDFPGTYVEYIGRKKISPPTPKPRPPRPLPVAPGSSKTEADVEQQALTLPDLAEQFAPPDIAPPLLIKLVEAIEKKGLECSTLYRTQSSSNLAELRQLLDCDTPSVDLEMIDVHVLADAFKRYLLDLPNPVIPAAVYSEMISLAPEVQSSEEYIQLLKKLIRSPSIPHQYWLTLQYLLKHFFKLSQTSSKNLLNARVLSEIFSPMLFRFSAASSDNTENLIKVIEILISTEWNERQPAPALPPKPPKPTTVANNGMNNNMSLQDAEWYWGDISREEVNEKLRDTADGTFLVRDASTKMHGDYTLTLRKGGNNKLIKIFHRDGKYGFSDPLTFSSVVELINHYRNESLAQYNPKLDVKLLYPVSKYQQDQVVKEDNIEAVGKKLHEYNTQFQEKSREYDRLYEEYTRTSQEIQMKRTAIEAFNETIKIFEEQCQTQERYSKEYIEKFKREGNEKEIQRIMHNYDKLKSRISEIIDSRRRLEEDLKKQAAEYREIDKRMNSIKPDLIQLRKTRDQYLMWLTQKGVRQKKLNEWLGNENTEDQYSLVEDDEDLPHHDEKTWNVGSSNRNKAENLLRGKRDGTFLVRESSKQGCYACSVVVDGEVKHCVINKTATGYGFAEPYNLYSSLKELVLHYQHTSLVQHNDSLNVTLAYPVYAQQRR
# PI3Kγ, sequence (P48736 whole entry, species assumed): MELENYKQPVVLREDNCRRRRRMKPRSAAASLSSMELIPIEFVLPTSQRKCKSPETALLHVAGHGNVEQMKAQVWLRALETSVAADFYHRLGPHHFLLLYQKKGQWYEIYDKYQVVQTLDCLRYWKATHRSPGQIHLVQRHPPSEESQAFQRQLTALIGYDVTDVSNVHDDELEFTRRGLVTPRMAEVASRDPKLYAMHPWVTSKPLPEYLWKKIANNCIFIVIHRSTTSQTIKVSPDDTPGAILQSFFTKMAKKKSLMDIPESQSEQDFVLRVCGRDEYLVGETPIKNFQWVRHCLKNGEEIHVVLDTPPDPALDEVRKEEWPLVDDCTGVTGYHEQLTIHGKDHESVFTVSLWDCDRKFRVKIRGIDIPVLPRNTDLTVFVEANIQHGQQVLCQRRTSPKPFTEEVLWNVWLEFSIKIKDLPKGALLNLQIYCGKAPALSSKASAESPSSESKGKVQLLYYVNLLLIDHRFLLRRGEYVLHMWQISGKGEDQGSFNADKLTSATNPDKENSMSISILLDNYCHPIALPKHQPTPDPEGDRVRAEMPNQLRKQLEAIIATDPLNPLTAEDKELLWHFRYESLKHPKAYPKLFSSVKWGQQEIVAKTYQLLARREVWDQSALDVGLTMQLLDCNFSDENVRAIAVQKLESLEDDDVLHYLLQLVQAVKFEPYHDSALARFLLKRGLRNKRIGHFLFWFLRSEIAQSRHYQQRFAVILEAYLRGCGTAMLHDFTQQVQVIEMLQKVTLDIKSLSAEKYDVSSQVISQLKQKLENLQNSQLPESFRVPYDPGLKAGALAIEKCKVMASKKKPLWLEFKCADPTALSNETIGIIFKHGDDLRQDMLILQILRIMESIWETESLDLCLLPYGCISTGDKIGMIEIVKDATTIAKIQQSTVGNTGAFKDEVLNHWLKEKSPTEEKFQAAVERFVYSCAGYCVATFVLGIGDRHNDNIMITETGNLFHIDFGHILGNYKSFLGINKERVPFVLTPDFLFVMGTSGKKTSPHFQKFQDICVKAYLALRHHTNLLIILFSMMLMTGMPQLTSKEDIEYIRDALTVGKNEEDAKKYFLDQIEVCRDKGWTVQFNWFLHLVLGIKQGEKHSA
IC50 (PI3Kα),IC50 (PI3Kγ),IC50 (mTOR),melting point,SMILES
1.94 µM,6.91 µM,1.65 µM,295 to 302 °C,"Cn1cc(/C=C2\Oc3ccc(NC(=O)C(F)(F)F)cc3C2=O)c2c(-c3ccccc3)ccnc21 [Compound 156, 2,2,2-trifluoro-N-{(2Z)-2-[(1-methyl-4-phenyl-1H-pyrrolo[2,3-b]pyridin-3-yl)methylidene]-3-oxo-2,3-dihydro-1-benzofuran-5-yl}acetamide]"
0.386 µM,0.676 µM,0.0123 µM,262 to 265 °C,"Cn1cc(/C=C2\Oc3cccc(O)c3C2=O)c2c(-c3cccc(C(F)(F)F)c3)ccnc21 [Compound 107, (2Z)-4-hydroxy-2-({1-methyl-4-[3-(trifluoromethyl)phenyl]-1H-pyrrolo[2,3-b]pyridin-3-yl}methylene)-1-benzofuran-3(2H)-one]"
0.059 µM,0.074 µM,0.002 µM,235 to 238 °C,"CN(C)C(=O)Nc1ccc(-c2ccnc3c2c(/C=C2\Oc4cccc(O)c4C2=O)cn3C)cc1 [Compound 140, 3-(4-{3-[(Z)-(4-hydroxy-3-oxo-1-benzofuran-2(3H)-ylidene)methyl]-1-methyl-1H-pyrrolo[2,3-b]pyridin-4-yl}phenyl)-1,1-dimethylurea]"
0.033 µM,0.083 µM,0.0017 µM,175 °C,"CNC(=O)c1ccc(-c2ccnc3c2c(/C=C2\Oc4cccc(O)c4C2=O)cn3C)cc1 [Compound 132, 4-{3-[(Z)-(4-hydroxy-3-oxo-1-benzofuran-2(3H)-ylidene)methyl]-1-methyl-1H-pyrrolo[2,3-b]pyridin-4-yl}-N-methylbenzamide]"
0.032 µM,0.061 µM,0.0014 µM,297 to 300 °C,"COc1cccc(-c2ccnc3c2c(/C=C2\Oc4cc(O)cc(O)c4C2=O)cn3C)c1 [Compound 66, (2Z)-4,6-dihydroxy-2-{[4-(3-methoxyphenyl)-1-methyl-1H-pyrrolo[2,3-b]pyridin-3-yl]methylene}-1-benzofuran-3(2H)-one]"
0.062 µM,0.249 µM,0.016 µM,242 to 244 °C,"COc1ccc(-c2ccnc3c2c(/C=C2\Oc4cccc(O)c4C2=O)cn3C)cn1 [Compound 71, (2Z)-4-hydroxy-2-{[4-(6-methoxypyridin-3-yl)-1-methyl-1H-pyrrolo[2,3-b]pyridin-3-yl]methylene}-1-benzofuran-3(2H)-one]"
0.014 µM,0.132 µM,0.0016 µM,315 to 320 °C,"Cn1cc(/C=C2\Oc3cc(O)cc(O)c3C2=O)c2c(-c3cccc(S(C)(=O)=O)c3)ccnc21 [Compound 74, (2Z)-4,6-dihydroxy-2-({1-methyl-4-[3-(methylsulfonyl)phenyl]-1H-pyrrolo[2,3-b]pyridin-3-yl}methylene)-1-benzofuran-3(2H)-one]"
0.008 µM,0.024 µM,0.0015 µM,340 °C,"Cn1cc(/C=C2\Oc3cc(O)cc(O)c3C2=O)c2c(-c3ccc(Cl)nc3)ccnc21 [Compound 63, (2Z)-2-{[4-(6-chloropyridin-3-yl)-1-methyl-1H-pyrrolo[2,3-b]pyridin-3-yl]methylene}-4,6-dihydroxy-1-benzofuran-3(2H)-one]"
> 10 µM,> 10 µM,0.018 µM,246 to 251 °C,"Cn1cc(/C=C2\Oc3ccc(NC(=O)Nc4cccnc4)cc3C2=O)c2c(N3CCC(C(=O)N4CCOCC4)CC3)ccnc21 [Compound 173, 1-[(2Z)-2-({1-methyl-4-[4-(morpholin-4-ylcarbonyl)piperidin-1-yl]-1H-pyrrolo[2,3-b]pyridin-3-yl}methylidene)-3-oxo-2,3-dihydro-1-benzofuran-5-yl]-3-pyridin-3-ylurea]"
0.288 µM,0.642 µM,0.021 µM,224 to 227 °C (dec.),"Cn1cc(/C=C2\Oc3ccc(NC(=O)Nc4cccnc4)cc3C2=O)c2c(N3CC4COC(C3)O4)ccnc21 (centres unmarked) [Compound 282, 1-[(2Z)-2-{[4-(6,8-dioxa-3-azabicyclo[3.2.1]oct-3-yl)-1-methyl-1H-pyrrolo[2,3-b]pyridin-3-yl]methylidene}-3-oxo-2,3-dihydro-1-benzofuran-5-yl]-3-pyridin-3-ylurea]"
0.721 µM,1.23 µM,0.0215 µM,225 to 228 °C,"CCC1(CC)CN(c2ccnc3c2c(/C=C2\Oc4ccc(NC(=O)Nc5cccnc5)cc4C2=O)cn3C)CCO1 [Compound 295, 1-[(2Z)-2-{[4-(2,2-diethylmorpholin-4-yl)-1-methyl-1H-pyrrolo[2,3-b]pyridin-3-yl]methylidene}-3-oxo-2,3-dihydro-1-benzofuran-5-yl]-3-pyridin-3-ylurea]"
0.119 µM,1.27 µM,0.019 µM,260 °C,"Cn1cc(/C=C2\Oc3cccc(O)c3C2=O)c2c(N3CCC(N)CC3)ccnc21 [Compound 139, (2Z)-2-{[4-(4-aminopiperidin-1-yl)-1-methyl-1H-pyrrolo[2,3-b]pyridin-3-yl]methylene}-4-hydroxy-1-benzofuran-3(2H)-one]"
0.239 µM,1.16 µM,0.019 µM,255 to 260 °C,"C[C@@H]1CN(c2ccnc3c2c(/C=C2\Oc4ccc(NC(=O)Nc5cccnc5)cc4C2=O)cn3C)C[C@H](C)O1 [Compound 296, 1-[(2Z)-2-({4-[(2R,6S)-2,6-dimethylmorpholin-4-yl]-1-methyl-1H-pyrrolo[2,3-b]pyridin-3-yl}methylidene)-3-oxo-2,3-dihydro-1-benzofuran-5-yl]-3-pyridin-3-ylurea]"
0.039 µM,0.094 µM,0.0007 µM,232 to 242 °C,"Cn1cc(/C=C2\Oc3cccc(O)c3C2=O)c2c(N3CCC(C(=O)NCCO)CC3)ccnc21 [Compound 148, N-(2-hydroxyethyl)-1-{3-[(Z)-(4-hydroxy-3-oxo-1-benzofuran-2(3H)-ylidene)methyl]-1-methyl-1H-pyrrolo[2,3-b]pyridin-4-yl}piperidine-4-carboxamide]"
0.059 µM,0.24 µM,0.0016 µM,312 to 315 °C,"Cn1cc(/C=C2\Oc3cc(O)cc(O)c3C2=O)c2c(N3CCCC3)ccnc21 [Compound 46, (2Z)-4,6-dihydroxy-2-[(1-methyl-4-pyrrolidin-1-yl-1H-pyrrolo[2,3-b]pyridin-3-yl)methylene]-1-benzofuran-3(2H)-one]"
0.029 µM,0.081 µM,0.0018 µM,345 °C,"Cn1cc(/C=C2\Oc3cc(O)cc(O)c3C2=O)c2c(-c3ccc(Cl)cc3)ccnc21 [Compound 64, (2Z)-2-{[4-(4-chlorophenyl)-1-methyl-1H-pyrrolo[2,3-b]pyridin-3-yl]methylene}-4,6-dihydroxy-1-benzofuran-3(2H)-one]"
0.109 µM,0.312 µM,0.0015 µM,118 to 122 °C,"COCCN1CCN(C(=O)c2ccc(-c3ccnc4c3c(/C=C3\Oc5cccc(O)c5C3=O)cn4C)cc2)CC1 [Compound 304, (2Z)-4-hydroxy-2-{[4-(4-{[4-(2-methoxyethyl)piperazin-1-yl]carbonyl}phenyl)-1-methyl-1H-pyrrolo[2,3-b]pyridin-3-yl]methylidene}-1-benzofuran-3(2H)-one]"
0.07 µM,0.245 µM,0.0029 µM,223 to 225 °C,"Cn1cc(/C=C2\Oc3cccc(O)c3C2=O)c2c(N3CCN(C(=O)N4CCCC4)CC3)ccnc21 [Compound 104, (2Z)-4-hydroxy-2-({1-methyl-4-[4-(pyrrolidin-1-ylcarbonyl)piperazin-1-yl]-1H-pyrrolo[2,3-b]pyridin-3-yl}methylene)-1-benzofuran-3(2H)-one]"
0.884 µM,1.93 µM,0.0255 µM,225 to 260 °C,"COCCC1CN(c2ccnc3c2c(/C=C2\Oc4ccc(NC(=O)Nc5cccnc5)cc4C2=O)cn3C)CCO1 (centres unmarked) [Compound 297, 1-[(2Z)-2-({4-[2-(2-methoxyethyl)morpholin-4-yl]-1-methyl-1H-pyrrolo[2,3-b]pyridin-3-yl}methylidene)-3-oxo-2,3-dihydro-1-benzofuran-5-yl]-3-pyridin-3-ylurea]"
5.5 µM,> 10 µM,0.397 µM,275 to 280 °C,"CN(C)C(=O)Nc1ccc2c(c1)C(=O)/C(=C/c1cn(C)c3nccc(-c4ccccc4)c13)O2 [Compound 161, 1,1-dimethyl-3-{(2Z)-2-[(1-methyl-4-phenyl-1H-pyrrolo[2,3-b]pyridin-3-yl)methylidene]-3-oxo-2,3-dihydro-1-benzofuran-5-yl}urea]"
0.051 µM,0.131 µM,0.002 µM,264 to 268 °C,"Cn1cc(/C=C2\Oc3cccc(O)c3C2=O)c2c(N3CCC(C(=O)N4CC5CCC(C4)O5)CC3)ccnc21 [Compound 306, (2Z)-4-hydroxy-2-({1-methyl-4-[4-(8-oxa-3-azabicyclo[3.2.1]oct-3-ylcarbonyl)piperidin-1-yl]-1H-pyrrolo[2,3-b]pyridin-3-yl}methylidene)-1-benzofuran-3(2H)-one]"
> 10 µM,1.8 µM,> 4 µM,251 to 253 °C,"Cn1cc(/C=C2\Oc3cccc(NC(=O)C(C)(C)C)c3C2=O)c2c(-c3ccccc3)ccnc21 [Compound 68, 2,2-dimethyl-N-{(2Z)-2-[(1-methyl-4-phenyl-1H-pyrrolo[2,3-b]pyridin-3-yl)methylene]-3-oxo-2,3-dihydro-1-benzofuran-4-yl}propanamide]"

SMILES,IC50 (PI3Kα),IC50 (PI3Kγ),IC50 (mTOR),melting point
"CN(C)C(=O)c1ccc(-c2ccnc3c2c(/C=C2\Oc4cccc(O)c4C2=O)cn3C)cc1 [Compound 111, 4-{3-[(Z)-(4-hydroxy-3-oxo-1-benzofuran-2(3H)-ylidene)methyl]-1-methyl-1H-pyrrolo[2,3-b]pyridin-4-yl}-N,N-dimethylbenzamide]",0.036 µM,0.066 µM,0.0005 µM,212 to 218 °C

# Source: patent US20090298820A1, “3-SUBSTITUTED-1H-PYRROLO[2,3-B]PYRIDINE AND 3-SUBSTITUTED-1H-PYRROLO[3,2-B]PYRIDINE COMPOUNDS, THEIR USE AS MTOR KINASE AND PI3 KINASE INHIBITORS, AND THEIR SYNTHESES” (Wyeth, priority 2008, published 2009)
